Values quoted from earlier work as cited in patent publication US20030113384A1, “Antimicrobial compositions for mastitis control” (Ecolab Inc., priority 1999, published 2003).

For CCCCCCC(=O)O [heptanoic acid], the pKa is listed as 4.4.
